Data taken from patent US20030082135A1, “Pathway of RANTES-mediated chemokine synthesis in astrocytes and methods of use therefor” (priority 2001, published 2003).

Tests used:
[1] = system: phosphorylated RSK in astrocytes; test: Immunofluorescence of phospho-p90RSK translocation; format: cell-based, mouse; details: 100 ng/ml RANTES, 5 or 20 min
Experimental: Immunofluorescence. Astrocytes were grown on glass coverslips for a day; the cells were then serum-starved for three hours. Astrocytes were treated with RANTES for 5 or 20 minutes. Following treatment, cells were fixed in −20° C. methanol, permeabilized in ice-cold 0.2% Triton X-100 in PBS and incubated with phospho-p90RSK (Thr360/Ser364) antibody overnight at 4° C., followed by incubation with Alexa Fluor 555 goat anti-rabbit IgG (Molecular Probes, Eugene, Oreg.). Nuclei were stained with Hoechst 33258 (1:2000) for 5 min; coverslips were mounted on slides using the ProLong Antifade Kit (Molecular Probes, Eugene, Oreg.). Slides were stored at room temperature in the dark until observation.
The ability of RANTES to induce nuclear translocation of RSK was examined.

[2] = system: intracellular cAMP in astrocytes; test: Intracellular cAMP in astrocytes (EIA); format: cell-based, mouse
Experimental: FIG. 8 is a set of bar graphs showing that RANTES reduced intracellular cAMP accumulation in astrocytes. Panel A. Astrocytes were treated with the indicated doses of RANTES or TCA4 for 5 min. Intracellular cAMP was detected as described in Materials and Methods. Values represent the mean±S.E.M of triplicate experiments. Panel B. Kinetics of intracellular cAMP levels. Astrocytes were treated with 100 ng/ml RANTES for indicated times. Panel C. RANTES inhibited forskolin-induced intracellular cAMP accumulation. Astrocytes were pretreated with 1 μM forskolin for 1 h then stimulated with the indicated amount of RANTES for 5 min. Intracellular cAMP was determined by EIA. Values are presented as relative cAMP level and represent the mean±S.E.M. of triplicate experiments.
To further elucidate the RANTES-mediated signaling pathway in astrocytes, intracellular cAMP levels were evaluated following chemokine stimulation. Primary mouse astrocytes were incubated with the indicated dose of RANTES or the negative control chemokine, TCA4 for 5 min and monitored for cAMP levels. RANTES (100 ng/ml) decreased intracellular cAMP levels by 68% in a dose dependent fashion (FIG. 8A).

[3] = system: ICAM-1 and CX3CR1 on astrocytes; test: Flow cytometric analysis of astrocyte receptor proteins; format: cell-based, mouse
Experimental: Flow cytometric analyses. PBS with 0.1% sodium azide was used for all washes and antibody (Ab) dilutions. Cells were pre-incubated 15 min with 0.5 μg Fc Block (BD-PharMingen) then 40 min at 4° C. with 1 μg of the appropriate Ab or matched isotype control immunoglobulin. Fluorescence-labelled cells were analyzed on a Coulter Profile II flow cytometer (Coulter, Hialeah, Fla.).
Another marker of activated astrocytes in MS and EAE lesions is the increased expression of the adhesion receptor, ICAM-1 (Lee, et al., 1999. J Immunol 165:4658-4666). Control astrocyte cultures were stained with anti-ICAM-1, and RANTES treatment further increased the levels of ICAM-1 protein expression about three-fold (mean intensity 50.2 vs. control of 16.3).
The cell surface receptor CX3CR1 was also selected for analysis since astrocyte expression of this receptor may facilitate interactions with endothelial cells and neurons that carry the membrane-tethered ligand for this receptor (Bacon, et al, 2000. J Neuroimmunol 104:92-97). Anti-CX3CR1 stained about 50% of the control astrocyte population. […] The modulation of receptor proteins peaked at 24 h; similar patterns were noted after a 48 h incubation with RANTES but the intensity levels were intermediate between the 0 and 24 h values.

[4] = system: astrocytes; test: ELISA of KC, TNF-α and MCP-1 protein in astrocyte culture supernatants; format: cell-based, mouse; details: 48 h, 1.5 to 100 ng/ml tested
[5] = system: cultured mouse astrocytes; test: RT-PCR for KC message in astrocytes; format: cell-based
[6] = system: primary neonatal mouse astrocyte cultures; test: RNase protection assay (RPA) for chemokine/cytokine transcripts in astrocyte cultures; format: cell-based
Experimental: Astrocyte isolation and culture. […] RNA isolation and RNase protection assay (RPA). […] RNase protection assays (RPA) for chemokine message were conducted with multi-probe templates according to the manufacture's protocol (RiboQuant assay kit, BD-PharMingen, San Diego, Calif.). Gels were scanned and radioactive bands quantitated using a phosphoimager (Molecular Dynamics, Sunnyvale, Calif.). Levels of uniformly expressed housekeeping genes large ribosomal subunit protein 32-3A (L32) or glyceraldehyde-3-phosphate dehydrogenase (GAPDH), were used for normalization. The value of each chemokine receptor band divided by the value of the indicated housekeeping gene band in the same sample yielded the relative intensity. Normalized receptor expression represents the ratio of the relative intensity following treatment with chemokine versus the relative intensity of medium alone. Treatment with pharmacological inhibitors. Astrocytes were washed and resuspended in serum-and insulin-free complete medium and starved overnight. Cells were treated at 37° C. for 1 h with 100 ng/ml Pertussis toxin (PTx) before addition of RANTES or IL-1. […] The cells were harvested after a 3 h incubation with RANTES; RNA was prepared and assayed by RPA.

[7] = system: murine KC promoter; test: KC promoter luciferase reporter in transfected astrocytes; format: cell-based, mouse; details: 100 ng/ml RANTES, 24 h
Text: Plasmids, transient transfection, and luciferase activity assay. The KC reporter plasmid was constructed by using a luciferase reporter gene pGL-3 basic vector (Promega, Madison, Wis.) driven by mouse KC promoter (−2878/+43). Wild-type p90RSK expression (WT pKH3) and dominant negative p90RSK expression (ΔΔ RSK pKH3) plasmids were obtained from Dr. John Blenis, Harvard Medical School. Astrocytes were transiently transfected with Lipofectamine 2000 reagent (Life Technologies, Gaithersburg, Md.) according to the manufacturer's protocol. After 24 h, the cells were stimulated with RANTES in absence or presence of the indicated inhibitor, and luciferase activity was determined after an additional 24 h, by the procedure according to the manufacturer (Promega, Madison, Wis.). Relative luciferase activity was normalized for cell lysate protein concentration as determined by BCA protein assay kit (Pierce, Rockford, Ill.). The Relative Fold Induction is the relative intensity of the experimental sample divided by the relative intensity of the medium control.
To establish whether RANTES up-regulation of chemokine production is mediated by activation of promoter elements, primary astrocyte cultures were transiently transfected with a murine KC promoter-luciferase construct, and reporter activity was monitored after RANTES treatment.

In the case of RANTES, the “nuclear translocation of phosphorylated RSK” value [1] is reported as “nuclear translocation was noted at 5 min”, the “time within which intracellular cAMP was dramatically decreased” value ([2]; 100 ng/ml RANTES) is reported as no more than 1 min and the “decrease of intracellular cAMP levels” value ([2]; 100 ng/ml, 5 min) is reported as 68%. For the same substance, the “effect on forskolin-induced cAMP accumulation” value ([2]; 1 μM forskolin 1 h, then RANTES 5 min) was “inhibited forskolin-induced cAMP accumulation in a dose dependent manner”, the “time of peak modulation of receptor proteins” value ([3]; RANTES) was 24 h and the “increase of ICAM-1 protein expression” value ([3]; RANTES treatment vs control astrocytes) was “about three”. The ICAM-1 mean intensity ([3]; RANTES treatment, control 16.3) was 50.2, the CX3CR1 mean intensity ([3]; RANTES treatment, control of 6.0 as printed) was 14.3 and the “cells stained with anti-CX3CR1” value ([3]; after RANTES, control about 50%) was “less than 30%”. The “concentration inducing KC protein” value [4] was no less than 10 ng/mL, the “synthesis of KC message” value [5] was “induce synthesis of KC message” and the “production of chemokine transcripts by astrocytes from mice deficient for CCR1, CCR2, CCR3, or CCR5” value ([6]; 100 ng/ml) was “specifically responded”. For the same substance, the “expression of TNF-α, RANTES, KC, MIP-1α, MIP-2, and MCP-1 transcripts” value ([6]; BALB/cJ neonatal astrocytes, chemokine for 6 h) was “up-regulated”, the “duration of RANTES transcription” value ([6]; RANTES-induced) was “greater than 24 h” and the “time after which TNF-α mRNA disappeared” value ([6]; RANTES-induced) was 18 h. For the same substance, the “time at which TNF-α mRNA was detected” value ([6]; RANTES-induced) was 1.5 h, the “time at which bands for RANTES and MIP-1α were visible” value ([6]; RANTES-induced) was 3 h and the “time by which MIP-1α mRNA was down regulated” value ([6]; RANTES-induced) was no more than 24 h. The “time of transient production of IL-6 transcripts” value ([6]; RANTES-induced) was 6 to 24 h, the “transcripts for the chemokine TCA3” value ([6]; RANTES-induced, any time point) was “not detected” and the “time at which RANTES and IL-6 transcripts appear” value ([6]; after RANTES stimulation) was 4 to 8 h. For the same substance, the “time at which TNF-α, KC, and MIP-2 transcripts were detected” value ([6]; after RANTES stimulation) was 60 to 90 min, the “time at which bands for MIP-1α and MCP-1 became visible” value ([6]; after RANTES stimulation) was 2 h and the “expression of TNF-α, RANTES, KC, IL-6, MIP-1α, MIP-2, and MCP-1 transcripts” value ([6]; astrocytes treated with RANTES, time course) was “up-regulated”. For the same substance, the “ability to induce chemokine transcripts after boiling” value ([6]; boiled for 30 min before incubation with astrocytes) was “completely destroyed”, the “concentration yielding optimal stimulation of transcripts” value ([6]; preliminary experiments) was 100 ng/mL and the “stimulation of KC promoter-luciferase reporter activity” value [7] was “about four”.
